Source: paper PMC9652379, “Safety evaluations of a synthetic antimicrobial peptide administered intravenously in rats and dogs” (Scientific Reports, 2022)
≈ marks a conversion by molar mass, not a printed value. Positions of bridges follow the written chain, without caps; N, C: chain ends. Non-standard residues stand in square brackets, D forms with d. Residues, ends and D or L forms follow the SMILES beside them. Chains are numbered I, II in the order given. βAla = NCCC(=O)O

What was measured:
K. pneumoniae = conditions: cited from earlier work
beagle dogs = assay: Four-week toxicity study in dogs: necroscopy, organ weights, microscopic findings; format: in vivo, dog; conditions: for Kidney: degeneration/regeneration, tubules, minimal (incidence): 4-week dosing; for Kidney: regeneration, tubules, minimal (incidence): 4-week recovery period
Protocol: These higher weights were correlated microscopically with minimal tubule degeneration/regeneration and minimal interstitial cell infiltrates. There were no other SET-M33-related organ weight changes (Table 6). There were no organ weight changes at recovery sacrifice, or macroscopic findings at terminal and recovery necroscopy. […] The kidney findings included minimal tubule degeneration/regeneration at 1.5 mg/kg/day and 4 mg/kg/day in males, and at 4.0 mg/kg/day in females, and minimal interstitial cell infiltrate in both sexes at a dose of 4.0 mg/kg/day. Degeneration featured vacuolation, cell sloughing and/or tinctorial change, and regeneration was characterized by increased basophilia, nuclear crowding and/or increased mitoses of cortical tubule epithelial cells. Regenerative changes were typically more pronounced than degenerative changes. SET-M33-related microscopic findings in kidney were correlated with higher kidney weights (absolute and relative to body and brain weight) and elevated BUN and creatinine in both sexes at 4.0 mg/kg/day. […] After the 4-week recovery period, kidney interstitial infiltrates cleared completely and tubule degeneration/regeneration resolved almost completely. At the infusion sites, there was complete recovery from vascular/perivascular inflammation and tunica intima hypertrophy/hyperplasia with partial recovery from vascular thrombi and hypertrophy/hyperplasia of the tunica media. Minimal regeneration of cortical tubule epithelial cells, observed in the kidneys of 1 female at a dose of 4.0 mg/kg/day, was considered to be due to a repair process, and a slight thrombus observed at the infusion site (saphenous vein) of another female was also in line with ongoing repair.
Complete macroscopic examination was performed on all animals, including examination of the external surface and all orifices; the external surfaces of the brain and spinal cord; the organs and tissues of the cranial, thoracic, abdominal and pelvic cavities and neck; and the rest of the carcass for macroscopic morphological abnormalities. Necropsy was performed on up to 3 animals/sex/group after treatment for 4 weeks and on 2 animals/sex/group after a 4-week treatment-free recovery period. Organs and tissues were weighed, preserved and examined microscopically. Prior to weighing, organs were carefully dissected and properly trimmed to remove adipose and other contiguous tissue in a uniform manner. Organs were weighed as soon as possible after dissection in order to avoid drying. Paired organs were weighed together. Eyes, optic nerve and testes were initially placed in Modified Davidson’s solution and then kept in 10% neutral buffered formalin (NBF). Lungs and urinary bladder were infused with 10% NBF prior to immersion in a larger volume of the same fixative. All other tissues were preserved in 10% NBF.

[1] = Dose range finding in rats: toxicokinetics; format: in vivo, rat; conditions: for quantifiable plasma concentrations until, post-dose: rat, in vivo; for mean AUCt ratio, low vs. high dose (theoretical ratio 2) / mean Cmax ratio, low vs. high dose (theoretical ratio 2): rats, 10 vs 20 mg/kg/day iv bolus
Protocol: SET-M33 concentration was determined after administration by intravenous bolus for 7 days at 10 mg/kg/day and 20 mg/kg/day. Exposure parameters (AUCt and Cmax) were compared in order to evaluate dose-dependency, accumulation ratio and sex-related differences. […] Mean plasma levels of SET-M33 increased in parallel with dose in males and females. Mean time to maximum concentrations (tmax) were observed immediately after administration, 5 min post-dose for both periods (days 1 and 7) and sexes, coherently with intravenous bolus administration.
Blood samples were collected from the retro-orbital plexus of animals under light isoflurane anaesthesia. Blood samples were taken from three males and three females at each extraction time. Sampling times were as follows: Day 1: 5, 15, 30 and 60 min after administration. Day 7: pre-dose and 5, 15, 30, 60 min and 24 h after administration. Control animals were bled only once on days 1 and 7 of treatment at 30 min after treatment. Each blood sample was collected into a polypropylene test tube containing lithium heparin as anticoagulant and kept in an ice bath until centrifuging (1600 g for 10 min at 2–8 °C). The plasma from each sample was transferred to a fresh polypropylene test tube, immediately frozen in dry ice and stored at − 20 °C ± 5.

CC[C@H](C)[C@H](NC(=O)[C@H](CCCCN)NC(=O)[C@@H](N)CCCCN)C(=O)N[C@@H](CCCNC(=N)N)C(=O)N[C@H](C(=O)N[C@@H](CCCNC(=N)N)C(=O)N[C@@H](CC(C)C)C(=O)N[C@@H](CO)C(=O)N[C@@H](C)C(=O)NCCCC[C@H](NC(=O)[C@H](C)NC(=O)[C@H](CO)NC(=O)[C@H](CC(C)C)NC(=O)[C@H](CCCNC(=N)N)NC(=O)[C@@H](NC(=O)[C@H](CCCNC(=N)N)NC(=O)[C@@H](NC(=O)[C@H](CCCCN)NC(=O)[C@@H](N)CCCCN)[C@@H](C)CC)C(C)C)C(=O)NCCCC[C@H](NC(=O)[C@H](CCCCNC(=O)[C@H](C)NC(=O)[C@H](CO)NC(=O)[C@H](CC(C)C)NC(=O)[C@H](CCCNC(=N)N)NC(=O)[C@@H](NC(=O)[C@H](CCCNC(=N)N)NC(=O)[C@@H](NC(=O)[C@H](CCCCN)NC(=O)[C@@H](N)CCCCN)[C@@H](C)CC)C(C)C)NC(=O)[C@H](C)NC(=O)[C@H](CO)NC(=O)[C@H](CC(C)C)NC(=O)[C@H](CCCNC(=N)N)NC(=O)[C@@H](NC(=O)[C@H](CCCNC(=N)N)NC(=O)[C@@H](NC(=O)[C@H](CCCCN)NC(=O)[C@@H](N)CCCCN)[C@@H](C)CC)C(C)C)C(=O)NCCC(=O)O)C(C)C [SET-M33] (I: H-KKIRVRLSAKK[βAla]-OH / II: H-KKIRVRLSAK / III: H-KKIRVRLSA / IV: H-KKIRVRLSA; amide I:10-IV:C, I:11-II:C, II:10-III:C (inferred); N-terminus and C-terminus assumed)
MIC50 (K. pneumoniae): 1.4 µM (≈ 6.56 µg/mL)
MIC90 (K. pneumoniae): 2.8 µM (≈ 13.1 µg/mL)
Infusion site (combined incidence, four sites): haemorrhage, vascular/perivascular, minimal (beagle dogs; dog, in vivo, 0.5 mg/kg/day): 1
Infusion site (combined incidence, four sites): haemorrhage, vascular/perivascular, moderate (beagle dogs; dog, in vivo, 0.5 mg/kg/day): 0
Infusion site (combined incidence, four sites): haemorrhage, vascular/perivascular, slight (beagle dogs; dog, in vivo, 0.5 mg/kg/day): 1
Infusion site (combined incidence, four sites): haemorrhage, vascular/perivascular, total (beagle dogs; dog, in vivo, 0.5 mg/kg/day): 2
Infusion site (combined incidence, four sites): hypertrophy/hyperplasia, tunica intima, minimal (beagle dogs; dog, in vivo, 0.5 mg/kg/day): 0
Infusion site (combined incidence, four sites): hypertrophy/hyperplasia, tunica media, minimal (beagle dogs; dog, in vivo, 0.5 mg/kg/day): 0
Infusion site (combined incidence, four sites): inflammation, vascular/perivascular, moderate (beagle dogs; dog, in vivo, 0.5 mg/kg/day): 0
Infusion site (combined incidence, four sites): thrombus, blood vessels, high (beagle dogs; dog, in vivo, 0.5 mg/kg/day): 0
Infusion site (combined incidence, four sites): thrombus, blood vessels, moderate (beagle dogs; dog, in vivo, 0.5 mg/kg/day): 0
Kidney: infiltrate, interstitium, minimal (incidence) (beagle dogs; dog, in vivo, 0.5 mg/kg/day): 0
Infusion site (combined incidence, four sites): haemorrhage, vascular/perivascular, slight (beagle dogs; dog, in vivo, 1.5 mg/kg/day): 0
Infusion site (combined incidence, four sites): hypertrophy/hyperplasia, tunica intima, minimal (beagle dogs; dog, in vivo, 1.5 mg/kg/day): 0
Infusion site (combined incidence, four sites): hypertrophy/hyperplasia, tunica media, minimal (beagle dogs; dog, in vivo, 1.5 mg/kg/day): 0
Infusion site (combined incidence, four sites): inflammation, vascular/perivascular, moderate (beagle dogs; dog, in vivo, 1.5 mg/kg/day): 0
Infusion site (combined incidence, four sites): thrombus, blood vessels, high (beagle dogs; dog, in vivo, 1.5 mg/kg/day): 0
Infusion site (combined incidence, four sites): thrombus, blood vessels, minimal (beagle dogs; dog, in vivo, 1.5 mg/kg/day): 0
Infusion site (combined incidence, four sites): thrombus, blood vessels, slight (beagle dogs; dog, in vivo, 1.5 mg/kg/day): 0
Infusion site (combined incidence, four sites): haemorrhage, vascular/perivascular, moderate (beagle dogs; dog, in vivo, 4 mg/kg/day): 0
Infusion site (combined incidence, four sites): hypertrophy/hyperplasia, tunica intima, minimal (beagle dogs; dog, in vivo, 4 mg/kg/day): 0
Infusion site (combined incidence, four sites): hypertrophy/hyperplasia, tunica intima, slight (beagle dogs; dog, in vivo, 4 mg/kg/day): 0
Infusion site (combined incidence, four sites): hypertrophy/hyperplasia, tunica intima, total (beagle dogs; dog, in vivo, 4 mg/kg/day): 0
Infusion site (combined incidence, four sites): thrombus, blood vessels, minimal (beagle dogs; dog, in vivo, 4 mg/kg/day): 0
Infusion site (combined incidence, four sites): thrombus, blood vessels, moderate (beagle dogs; dog, in vivo, 4 mg/kg/day): 5
Kidney: degeneration/regeneration, tubules, minimal (incidence) (beagle dogs; female dogs, 0.5 mg/kg/day): 0
Kidney: regeneration, tubules, minimal (incidence) (beagle dogs; female dogs, 0.5 mg/kg/day): 0
Kidney: degeneration/regeneration, tubules, minimal (incidence) (beagle dogs; female dogs, 1.5 mg/kg/day): 0
Kidney: regeneration, tubules, minimal (incidence) (beagle dogs; female dogs, 1.5 mg/kg/day): 0
Kidney: degeneration/regeneration, tubules, minimal (incidence) (beagle dogs; female dogs, 4.0 mg/kg/day): 2
Kidney: regeneration, tubules, minimal (incidence) (beagle dogs; female dogs, 4.0 mg/kg/day): 1
Kidney: degeneration/regeneration, tubules, minimal (incidence) (beagle dogs; male dogs, 0.5 mg/kg/day): 2
Kidney: regeneration, tubules, minimal (incidence) (beagle dogs; male dogs, 0.5 mg/kg/day): 0
Kidney: degeneration/regeneration, tubules, minimal (incidence) (beagle dogs; male dogs, 1.5 mg/kg/day): 3
Kidney: regeneration, tubules, minimal (incidence) (beagle dogs; male dogs, 1.5 mg/kg/day): 0
Kidney: degeneration/regeneration, tubules, minimal (incidence) (beagle dogs; male dogs, 4.0 mg/kg/day): 0
Kidney: regeneration, tubules, minimal (incidence) (beagle dogs; male dogs, 4.0 mg/kg/day): 0
quantifiable plasma concentrations until, post-dose [1]: 1 h
quantifiable plasma concentrations until, post-dose ([1]; iv, 10 mg/kg/day): 0.5 to 1 h
quantifiable plasma concentrations until, post-dose ([1]; iv, 20 mg/kg/day): up to 24 h
mean AUCt ratio, low vs. high dose (theoretical ratio 2) ([1]; day 1): 2.2
mean Cmax ratio, low vs. high dose (theoretical ratio 2) ([1]; day 1): 2.4 to 2.7
mean AUCt ratio, low vs. high dose (theoretical ratio 2) ([1]; day 7): 9.8–14.0
mean Cmax ratio, low vs. high dose (theoretical ratio 2) ([1]; day 7): 2.8–7.2
